Reference: US8404725B2, “Phenylamino isonicotinamide compounds” (Merck Patent GmbH, priority 2008, dated 2013)

Tests used:
[1] = target: human MEK1 (Homo sapiens, UniProt Q02750); assay: MEK-1 Enzyme Assay (LANCE-HTRF); format: biochemical; details: 100 nM MEK1, 15 μM ATP, 300 nM ERK2, two hours
Method: The activity of the compounds of the present invention may be determined by the following procedure: Inhibition of human MEK1 kinase activity was monitored with a homogenous, fluorescence based assay. The assay uses time resolved fluorescence resonance energy transfer to probe for phosphorylation of […] by MEK1. The assay is carried out in low volume 96 well microtiterplates. In a total volume of 15 μl, compounds are incubated with 100 nM MEK1, 15 μM ATP, 300 nM ERK2 employing a buffer containing 20 mM TRIS/HCl, 10 mM MgCl2, 100 μM NaVO4, 1 mM DTT, and 0.005% Tween 20 (pH 7.4). After two hours, 5 nM Europium-anti-PY20 (Perkin Elmer) and 50 nM Anti-GST-Allophycocyanin (CisBio) in buffer containing 50 mM EDTA and 0.05% BSA are added and the reaction incubated for one hour in the dark. Time-resolved fluorescence is measured using a LJL-Analyst (Molecular Devices) with an excitation wavelength of 340 nm and an emission wavelength of 665 nm. The final concentration of DMSO is 2%.

[2] = test system: Murine colon C26 cells; assay: Tumor Cell Proliferation Assay (ATP Lite), C26; format: cell-based; details: Mus musculus, 96 h, 4 days
Method: (§1) Murine colon C26, human melanoma A375 and human pancreatic MiaPaCa-2 cells were plated in 96 well Corning white plates (1500 cells/well for C26, and 2000 cells/well for A375, and MiaPaCa-2) and cultured overnight at 37° C. in 5% CO2. Inhibitors were serially diluted in 100 DMSO and subsequently added to cells to reach a final concentration of 0.25% DMSO. The cells were incubated for 4 days in the presence of test compounds in cell growth media (DMEM with 10% fetal bovine serum, 2 mM glutamine for C26, and MiaPaCa-2, and RPMI with 10% fetal bovine serum, 2 mM glutamine for A375). Cell proliferation was quantitated using the ATP lite cell proliferation kit (Packard). Columns 2-5 show the concentration of compounds required to induce 50% cell death (IC50 in μM) of […].

[3] = test system: human melanoma A375 cells; assay: Tumor Cell Proliferation Assay (ATP Lite), A375; format: cell-based; details: A-375, 96 h, 4 days
Method: as §1

[4] = test system: human pancreatic MiaPaCa-2 cells; assay: Tumor Cell Proliferation Assay (ATP Lite), MiaPaCa-2; format: cell-based; details: MIA PaCa-2, 96 h, 4 days
Method: as §1

[5] = test system: Colo-205 xenograft; assay: In vivo efficacy, Colo-205 mouse xenograft model; details: male nude mice
Method: (§2) Male nude (nu/nu) mice were injected subcutaneously above the right foreleg with certain number of cells of human tumor cell lines such as Colo-205, A375 or MiaPaCa2. Tumors were measured with calipers one week after cells were implanted. Tumor length (l) and width (w) were measured and tumor volume was calculated with the equation l*w^2/2. […] Tumor volume and body weight were measured for each animal on Days 0, 4, 6, 8, 10, 12 and 14. Tumor volume and percent body weight were analyzed via Two-Way Repeated Measures Analysis of Variance (RM-ANOVA) followed by Fisher's post-hoc multiple pair-wise comparisons of treatment group means.

[6] = test system: MiaPaCa2 xenograft; assay: In vivo efficacy, MiaPaCa2 mouse xenograft model; details: male nude mice
Method: as §2

Chain of human MEK1 (Q02750 whole entry): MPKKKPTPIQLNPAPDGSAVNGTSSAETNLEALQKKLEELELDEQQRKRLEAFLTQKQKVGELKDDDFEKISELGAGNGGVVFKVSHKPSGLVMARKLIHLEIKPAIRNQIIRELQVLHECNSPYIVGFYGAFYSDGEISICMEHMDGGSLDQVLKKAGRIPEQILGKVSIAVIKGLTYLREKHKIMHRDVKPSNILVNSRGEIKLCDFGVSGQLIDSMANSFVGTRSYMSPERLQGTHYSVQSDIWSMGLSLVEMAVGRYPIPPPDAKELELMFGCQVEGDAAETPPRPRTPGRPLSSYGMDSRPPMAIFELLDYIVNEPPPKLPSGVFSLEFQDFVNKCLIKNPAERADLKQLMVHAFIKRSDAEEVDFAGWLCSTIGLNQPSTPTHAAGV

| Structure (SMILES) | IC50 [1] | IC50 [2] | IC50 [3] | IC50 [4] | tumor growth inhibition ([5]; daily 1.5 mg/kg, oral route) | tumor growth inhibition (TGI) ([5]; 50 μg/kg*day, oral route) | tumor growth inhibition ([5]; 150 μg/kg/day) | TGI ([6]; 33 μg/kg/day) | TGI ([6]; 50 μg/kg/day) |
| --- | --- | --- | --- | --- | --- | --- | --- | --- | --- |
| O=C(N[C@@H]1CCC[C@@H](O)[C@H]1O)c1cc(Cl)ncc1Nc1ccc(I)cc1F (racemic) [(1), 2-Chloro-N-((1RS,2SR,3RS)-2,3-dihydroxy-cyclohexyl)-5-(2-fluoro-4-iodo-phenylamino)-sonicotinamide] | 34.5 nM | 2 nM | 2 nM | 2 nM |  |  |  |  |  |
| O=C(N[C@@H]1CCC[C@@H](O)[C@H]1O)c1c(F)cncc1Nc1ccc(I)cc1F (racemic) [(2)] | 74 nM | 5 nM | 1 nM | 4.5 nM |  |  |  |  |  |
| O=C(N[C@H]1CCC[C@H](O)[C@@H]1O)c1ccncc1Nc1ccc(I)cc1F (racemic) [(3), N-[(1SR,2RS,3SR)-2,3-dihydroxycyclohexyl]-3-[(2-fluoro-4-iodophenyl)amino]isonicotinamide] | 94.8 nM | 16 nM | 1.4 nM | 7.3 nM |  |  |  |  |  |
| N[C@@H]1CCC[C@@H](OC(=O)c2c(F)cncc2Nc2ccc(I)cc2F)[C@H]1O (racemic) [(4), 3-Fluoro-5-(2-fluoro-4-iodo-phenylamino)-isonicotinic acid (1RS,2SR,3RS)-3-amino-2-hydroxy-cyclohexyl ester] | 160 nM | 20 nM | 85.5 nM | 49 nM |  |  |  |  |  |
| O=C(N[C@@H]1CCC[C@@H](O)[C@H]1O)c1ccncc1Nc1ccc(Br)cc1F [(9), 3-(4-bromo-2-fluorophenylamino)-N-((1R,2S,3R)-2,3-dihydroxycyclohexyl)isonicotinamide] |  |  |  |  | 98.5% |  |  |  |  |

Further lines, with some results ahead:

| IC50 [1] | IC50 [2] | IC50 [3] | IC50 [4] | Structure (SMILES) | tumor growth inhibition ([5]; daily 1.5 mg/kg, oral route) | tumor growth inhibition (TGI) ([5]; 50 μg/kg*day, oral route) | tumor growth inhibition ([5]; 150 μg/kg/day) | TGI ([6]; 33 μg/kg/day) | TGI ([6]; 50 μg/kg/day) |
| --- | --- | --- | --- | --- | --- | --- | --- | --- | --- |
| 98 nM | 73 nM | 7.5 nM | 42.5 nM | O=C(N[C@@H]1CCC[C@@H](O)[C@H]1O)c1ccncc1Nc1ccc(Br)cc1F (racemic) [(5), 3-(4-Bromo-2-fluoro-phenylamino)-N-((1RS,2SR,3RS)-2,3-dihydroxy-cyclohexyl)-isonicotinamide] |  |  |  |  |  |
| 38 nM | 113 nM | 16.8 nM | 75.3 nM | O=C(N[C@@H]1CCC[C@@H](O)[C@H]1O)c1ccncc1Nc1ccc(Br)cc1Cl (racemic) [(6), 3-(4-Bromo-2-chloro-phenylamino)-N-((1RS,2SR,3RS)-2,3-dihydroxy-cyclohexyl)-isonicotinamide] |  |  |  |  |  |
| 2670 nM | 5400 nM | 274 nM | 2120 nM | O=C(N[C@H]1CCC[C@H](O)[C@@H]1O)c1ccncc1Nc1ccc(I)cc1F [(7), N-((1S,2R,3S)-2,3-dihydroxycyclohexyl)-3-(2-fluoro-4-iodophenylamino)isonicotinamide] |  |  |  |  |  |
| 189 nM | 150 nM | 21.5 nM | 74 nM | O=C(N[C@@H]1CCC[C@@H](O)[C@H]1O)c1ccncc1Nc1ccccc1F [(10), N-((1R,2S,3R)-2,3-Dihydroxy-cyclohexyl)-3-(2-fluoro-phenylamino)-isonicotinamide] |  |  |  |  |  |
| 133 nM | 4.7 nM | 1.6 nM | 2.7 nM | O=C(N[C@@H]1CCC[C@@H](O)[C@H]1O)c1ccncc1Nc1ccc(I)cc1F [Compound (8), N-[(1R,2S,3R)-2,3-dihydroxycyclohexyl]-3-[(2-fluoro-4-iodophenyl)amino]isonicotinamide] |  | 100.69% | 115.33% | 100.97% | 110.74% |
